Source: patent publication US10202326B2, “Polyprenylated phloroglucinol compounds as potent P-glycoprotein inducers” (COUNCIL OF SCIENTIFIC & INDUSTRIAL RESEARCH, priority 2014, dated 2019)
Read-outs that look alike come from different tables or passages of the source.

Tests used:
P-glycoprotein (Pgp) = assay: Pgp-induction assay, rhodamine123 (Rh123) cell exclusion method in LS180 cells; format: cell-based; conditions: for EC50: 48 h treatment, Rh123 fluorescence; for Pgp induction activity compared to parent natural product: 1b, 1g versus garcinol (1a), 2b versus isogarcinol (2a)
Procedure: All synthesized compounds were screened for their ability to induce Pgp by using rhodamine123 (Rh123) cell exclusion method. In this method, the Pgp function was evaluated in terms of rhodamine 123 (Rh123) accumulations and efflux. Briefly, the protocol used is as follows: Colorectal LS180 cells Colorectal LS-180 cells [obtained from ECACC (European Collection of Cell Cultures) catalogue number: 87021202; passage number 52] were seeded at a density of 2×10^4 per well of 96 well plate and were allowed to grow for next 24 h. Cells were further incubated with the test compounds, and were diluted to a final concentration of 100 nM and rifampicin (standard) to a final concentration of 10 μM in complete media for 48 h. The final concentration of DMSO was kept at 0.1%. Drugs were removed and cells were incubated with HANKS buffer for 40 minutes before further incubation with HANKS buffer (containing 10 μM of Rh123 as a Pgp substrate) for 90 minutes. At the end of Rh123 treatment cells were washed four times with cold PBS followed by cell lysis for 1 h by using 200 μl of lysis buffer (0.1% Triton X-100 and 0.2 N NaOH). A total of 100 μl of lysate was used for reading fluorescence of Rh123 at 485 nm/529 nm. Samples were normalized by dividing fluorescence of each sample with total protein present in the lysate. […] For EC50 determination, different concentrations of compound were used to treat LS180 cells for 48 h. EC50 was determined by plotting fluorescence of Rh123 against concentration of compound.

[1] = Cytotoxicity in LS-180 cells using MTT assay; conditions: human
Procedure: (§1) Compounds proposed in present invention were evaluated for their cytotoxic effect in LS-180 cells using MTT assay. In each well of a 96-well plate, 3×10^3 cells were grown in 100 μL of medium. After 24 h, each test molecules were added to achieve a final concentration of 10 to 0.01 μmol/L, respectively. After 48 h of treatment, 20 μL of 2.5 mg/mL MTT solution in phosphate buffer saline was added to each well. After 48 h, supernatant was removed and formazan crystals were dissolved in 200 μL of DMSO. Absorbance was then measured at 570 nm using an absorbance plate reader. Data are expressed as the percentage of viable cells in treated relative to non-treated conditions.

in vitro = conditions: human
Procedure: as §1

[2] = LS180 cells, values in text, read-out: EC50 for p-glycoprotein induction activity
[3] = LS-180 cells, read-out: Pgp induction EC50

SMILES | EC50 (P-glycoprotein (Pgp); [2]) | Pgp induction activity compared to parent natural product (P-glycoprotein (Pgp); LS180 cells) | IC50 at 48 h [1] | EC50 (P-glycoprotein (Pgp); [3]) | IC50 at 48 h (in vitro)
CC(C)=CCOc1ccc(C(=O)C2=C3OC(C)(C)C(CC=C(C)C)CC34CC(CC=C(C)C)C(C)(C)C(CC=C(C)C)(C2=O)C4=O)cc1OCC=C(C)C (centres unmarked) [Compound 2b, 3′,4′-di-(O-prenyl)-isogarcinol] | 2.9 nM | better | 40000 nM | – | –
C=C(C)[C@@H](CC=C(C)C)C[C@@]12C[C@@H](CC=C(C)C)C(C)(C)[C@@](CC=C(C)C)(C(=O)C(C(=O)c3ccc(O)c(O)c3)=C1O)C2=O [Compound 1a, Garcinol, reference compound] | – | – | – | 12 nM | 20000 nM
C=C(C)C(CC=C(C)C)CC12CC(CC=C(C)C)C(C)(C)C(CC=C(C)C)(C(=O)C(C(=O)c3ccc(OCc4ccccc4[N+](=O)[O-])c(OCc4ccccc4[N+](=O)[O-])c3)=C1O)C2=O (centres unmarked) [Compound 1g, 3′,4′-di-[O-(2″-nitro-benzyl)]-garcinol] | 6.8 nM | – | > 100000 nM | – | –
C=C(C)C(CC=C(C)C)CC12CC(CC=C(C)C)C(C)(C)C(CC=C(C)C)(C(=O)C(C(=O)c3ccc(OC(=O)CCC)c(OC(=O)CCC)c3)=C1O)C2=O (centres unmarked) [Compound 1b, 3′,4′-Di-(O-Butanoyl)-Garcinol] | 8.9 nM | better | – | – | –
CC(C)=CC[C@H]1C[C@@]23C[C@@H](CC=C(C)C)C(C)(C)[C@@](CC=C(C)C)(C(=O)C(C(=O)c4ccc(O)c(O)c4)=C2OC1(C)C)C3=O [Compound 2a, Isogarcinol, reference compound] | – | – | 11000 nM | 7 nM | –
